In ChEMBL document CHEMBL3352668, “Synthesis and antibacterial evaluation of new, unsymmetrical triaryl bisamidine compounds” (Bioorg Med Chem Lett, 2014) one finds MIC and CC50 data, which are given here for eleven molecules.

Data set [1] has as its system Escherichia coli. Put plainly: Antimicrobial activity against TolC-deficient Escherichia coli by CLSI method. Format: functional.
For the next data set, the system named is Bacillus subtilis. Put plainly: Antimicrobial activity against Bacillus subtilis BD54 by CLSI method. Type of data set: functional. The conditions noted are these: Bacillus subtilis, BD54; read-out: MIC.
A short description of data set [2]: Cytotoxicity against human HeLa cells by MTS assay. Type of data set: cell-based. The conditions noted are these: HeLa cells.
Another data set relates to Enterococcus faecalis. As to the kind of experiment: Antimicrobial activity against vancomycin-resistant Enterococcus faecalis ATCC 51575 by CLSI method. Type of data set: functional. The conditions noted are these: Enterococcus faecalis, ATCC 51575; read-out: MIC.
The subject of data set [3] is Escherichia coli. Put plainly: Antimicrobial activity against TolC+ Escherichia coli 700 by CLSI method. Type of data set: functional. The note with it: Escherichia coli, 700; read-out: MIC.
Data set [4] has as its system Pseudomonas aeruginosa. As to the kind of experiment: Antimicrobial activity against Pseudomonas aeruginosa PAO1 by CLSI method. Type of data set: functional. The conditions noted are these: Pseudomonas aeruginosa, PAO1; read-out: MIC.
The next data set has as its system Staphylococcus aureus. As to the kind of experiment: Antimicrobial activity against methicillin-resistant Staphylococcus aureus 1094 by CLSI method. Type of data set: functional. The note with it: Staphylococcus aureus, 1094; read-out: MIC.
The subject of a further data set is Bacillus anthracis. As to the kind of experiment: Antimicrobial activity against Bacillus anthracis Sterne by CLSI method. Type of data set: functional.
The next data set relates to Klebsiella pneumoniae. As to the kind of experiment: Antimicrobial activity against Klebsiella pneumoniae 13882 by CLSI method. Type of data set: functional. The conditions noted are these: Klebsiella pneumoniae, 13882; read-out: MIC.
Data set [5] concerns Pseudomonas aeruginosa. Put plainly: Antimicrobial activity against mexAB-oprM deficient Pseudomonas aeruginosa PAO1 harboring by CLSI method. Format: functional.
Setting [6] is: Escherichia coli, read-out: MIC.
Setting [7] is: Bacillus anthracis, Sterne, read-out: MIC.

A word on the MIC: it is the smallest concentration in the dilution series that meets the test's criterion for growth inhibition. Broadly, the CC50 is the concentration that lowers cell viability or growth by half. Read a low CC50 as harm at low concentration.

In brackets after ≈: the same amount, converted by molar mass. Some results are limits rather than exact numbers.

For the molecule `CC1CNC(c2ccc3cc(-c4ccc(-c5cnc(N6CCOCC6)nc5)cc4)[nH]c3c2)=N1` (centres undefined), the MIC with Escherichia coli [1] (setting [6]) is 60 µg/mL (≈ 137 µM); with Bacillus subtilis it was 10 µg/mL (≈ 22.8 µM); in the data set with Enterococcus faecalis, greater than 80 µg/mL; in the data set on Escherichia coli [3] it was greater than 80 µg/mL; with Pseudomonas aeruginosa [4], greater than 80 µg/mL; in the data set on Staphylococcus aureus, greater than 80 µg/mL. The MIC is 22.5 µg/mL (≈ 51.3 µM) in the data set on Bacillus anthracis (setting [7]) and greater than 80 µg/mL with Klebsiella pneumoniae. Also, half-maximal cytotoxicity in data set [2] (CC50) was put at 1.3 µg/mL (≈ 2.96 µM).

As for `NCCCNc1cc(-c2cc3ccc(C4=NCCCN4)cc3[nH]2)ccc1-c1cc2ccc(C3=NCCCN3)cc2o1`, the MIC in the data set with Escherichia coli [1] (setting [6]) was found to be 0.63 µg/mL (≈ 1.15 µM); in the data set on Bacillus subtilis it was 0.24 µg/mL (≈ 0.44 µM); in the data set on Enterococcus faecalis it was 1.25 µg/mL (≈ 2.29 µM); with Escherichia coli [3], 2.5 µg/mL (≈ 4.58 µM); in the data set on Pseudomonas aeruginosa [4] it was 2.5 µg/mL (≈ 4.58 µM); in the data set with Staphylococcus aureus, 0.63 µg/mL (≈ 1.15 µM). Also, the MIC was determined as 0.63 µg/mL (≈ 1.15 µM) in the data set on Bacillus anthracis (setting [7]) and 1.25 µg/mL (≈ 2.29 µM) in the data set on Klebsiella pneumoniae. Moreover, the CC50 in [2] was determined as 4.6 µg/mL (≈ 8.43 µM).

As for `FC1CN=C(c2ccc3cc(-c4ccc(-c5cc6ccc(C7=NCC(F)CN7)cc6o5)cc4)[nH]c3c2)NC1` (centres undefined), the MIC is 0.27 µg/mL (≈ 0.53 µM) with Escherichia coli [1] (setting [6]); 0.16 µg/mL (≈ 0.314 µM) with Bacillus subtilis; 0.31 µg/mL (≈ 0.608 µM) in the data set with Enterococcus faecalis; 1.25 µg/mL (≈ 2.45 µM) in the data set with Escherichia coli [3]; 5 µg/mL (≈ 9.81 µM) in the data set with Pseudomonas aeruginosa [4]; 0.31 µg/mL (≈ 0.608 µM) in the data set on Staphylococcus aureus. Besides, the minimum inhibitory concentration (MIC) with Bacillus anthracis (setting [7]) was 0.31 µg/mL (≈ 0.608 µM); in the data set with Klebsiella pneumoniae, 0.63 µg/mL (≈ 1.24 µM); in the data set with Pseudomonas aeruginosa [5] it was 2.5 µg/mL (≈ 4.91 µM). This molecule yielded a CC50 in data set [2] of 47.5 µg/mL (≈ 93.2 µM).

Take `CC1CNC(c2ccc3cc(-c4ccc(-c5cc6ccc(C7=NC(C)CN7)cc6o5)cc4)[nH]c3c2)=N1` (stereo in doubt): the MIC worked out at 0.63 µg/mL (≈ 1.33 µM) against Escherichia coli [1]; 0.2 µg/mL (≈ 0.422 µM) with Bacillus subtilis; 0.39 µg/mL (≈ 0.824 µM) with Enterococcus faecalis; 0.63 µg/mL (≈ 1.33 µM) in the data set with Escherichia coli [3]; 60 µg/mL (≈ 127 µM) in the data set with Pseudomonas aeruginosa [4]; 0.31 µg/mL (≈ 0.655 µM) in the data set with Staphylococcus aureus. Also, the MIC came out at 0.31 µg/mL (≈ 0.655 µM) in the data set on Bacillus anthracis and 2.5 µg/mL (≈ 5.28 µM) in the data set on Klebsiella pneumoniae. Moreover, in data set [2], it took 5.7 µg/mL (≈ 12 µM) to reach half-maximal cytotoxicity (CC50).

Turning to `c1cc2cc(-c3ccc(-c4cnc(N5CCCC5)nc4)cc3)[nH]c2cc1C1=NCCCN1`, the MIC with Escherichia coli [1] (setting [6]) is 0.63 µg/mL (≈ 1.49 µM); with Bacillus subtilis, 0.63 µg/mL (≈ 1.49 µM); in the data set with Enterococcus faecalis, 5 µg/mL (≈ 11.8 µM); in the data set on Escherichia coli [3], greater than 80 µg/mL; in the data set on Pseudomonas aeruginosa [4], greater than 80 µg/mL; in the data set on Staphylococcus aureus it was 2.5 µg/mL (≈ 5.92 µM). Besides, the MIC with Bacillus anthracis (setting [7]) is 0.63 µg/mL (≈ 1.49 µM); in the data set with Klebsiella pneumoniae, greater than 80 µg/mL. In data set [2], this molecule showed a CC50 of 5.7 µg/mL (≈ 13.5 µM).

As to `FC1CN=C(c2ccc3cc(-c4ccc(-c5cc6ccc(C7=NCC(F)CN7)cc6o5)cn4)[nH]c3c2)NC1` (centres undefined), the MIC was found to be 0.31 µg/mL (≈ 0.607 µM) in the data set on Escherichia coli [1] (setting [6]); 0.16 µg/mL (≈ 0.313 µM) with Bacillus subtilis; 0.63 µg/mL (≈ 1.23 µM) in the data set on Enterococcus faecalis; 8.3 µg/mL (≈ 16.3 µM) with Escherichia coli [3]; 8.3 µg/mL (≈ 16.3 µM) with Pseudomonas aeruginosa [4]; 0.83 µg/mL (≈ 1.63 µM) in the data set with Staphylococcus aureus. Further, the MIC with Bacillus anthracis (setting [7]) amounted to 0.63 µg/mL (≈ 1.23 µM); with Klebsiella pneumoniae, 2.5 µg/mL (≈ 4.9 µM). This molecule showed a CC50 in [2] of 19.6 µg/mL (≈ 38.4 µM).

For the molecule `OC1CN=C(c2ccc3cc(-c4ccc(-c5cc6ccc(C7=NCC(O)CN7)cc6o5)cn4)[nH]c3c2)NC1` (centres undefined), the MIC with Escherichia coli [1] (setting [6]) worked out at 0.63 µg/mL (≈ 1.24 µM); in the data set with Bacillus subtilis, 3.75 µg/mL (≈ 7.4 µM); in the data set with Enterococcus faecalis, 5 µg/mL (≈ 9.87 µM); in the data set with Escherichia coli [3], 80 µg/mL (≈ 158 µM); with Pseudomonas aeruginosa [4], 25 µg/mL (≈ 49.4 µM); in the data set with Staphylococcus aureus, 2.5 µg/mL (≈ 4.94 µM). Besides, the MIC is 1.09 µg/mL (≈ 2.15 µM) in the data set on Bacillus anthracis (setting [7]) and 8.8 µg/mL (≈ 17.4 µM) in the data set on Klebsiella pneumoniae. Further, half-maximal cytotoxicity in data set [2] (CC50) was put at 16.7 µg/mL (≈ 33 µM).

For `Cc1c(-c2ccc(-c3cc4ccc(C5=NCCCN5)cc4o3)cc2)[nH]c2cccc(C#N)c12`, the MIC in the data set with Escherichia coli [1] (setting [6]) came out at 10 µg/mL (≈ 23.2 µM); in the data set with Bacillus subtilis, 2.5 µg/mL (≈ 5.81 µM); with Enterococcus faecalis it was 5 µg/mL (≈ 11.6 µM); in the data set on Escherichia coli [3], 20 µg/mL (≈ 46.5 µM); in the data set on Pseudomonas aeruginosa [4], 40 µg/mL (≈ 92.9 µM); in the data set on Staphylococcus aureus, 5 µg/mL (≈ 11.6 µM). Moreover, the MIC with Bacillus anthracis (setting [7]) worked out at 2.5 µg/mL (≈ 5.81 µM); in the data set with Klebsiella pneumoniae, 20 µg/mL (≈ 46.5 µM).

Turning to `OC1CN=C(c2ccc3cc(-c4ccc(-c5cc6ccc(C7=NCC(O)CN7)cc6o5)s4)[nH]c3c2)NC1` (centres undefined), the MIC in the data set with Escherichia coli [1] (setting [6]) turned out to be 0.47 µg/mL (≈ 0.919 µM); in the data set on Bacillus subtilis, 0.43 µg/mL (≈ 0.84 µM); in the data set on Enterococcus faecalis it was 2.5 µg/mL (≈ 4.89 µM); in the data set on Escherichia coli [3] it was 5 µg/mL (≈ 9.77 µM); with Pseudomonas aeruginosa [4], 40 µg/mL (≈ 78.2 µM); with Staphylococcus aureus it was 1.88 µg/mL (≈ 3.67 µM). In addition, the values for the MIC in the data set on Bacillus anthracis (setting [7]) and in the data set on Klebsiella pneumoniae were 1.25 µg/mL (≈ 2.44 µM) and 15 µg/mL (≈ 29.3 µM), respectively. Also, the CC50 in data set [2] turned out to be 12.7 µg/mL (≈ 24.8 µM).

With `CN(C)c1ccc(-c2ccc(-c3cc4ccc(C5=NCCCN5)cc4[nH]3)cc2)cc1`, the MIC in the data set on Escherichia coli [1] (setting [6]) is greater than 80 µg/mL; in the data set on Bacillus subtilis, 0.63 µg/mL (≈ 1.6 µM); in the data set on Enterococcus faecalis, 3.1 µg/mL (≈ 7.86 µM); in the data set with Escherichia coli [3], greater than 80 µg/mL; in the data set on Pseudomonas aeruginosa [4], greater than 80 µg/mL; in the data set with Staphylococcus aureus it was 1.09 µg/mL (≈ 2.76 µM). Moreover, the values for the MIC in the data set with Bacillus anthracis (setting [7]) and with Klebsiella pneumoniae were 0.47 µg/mL (≈ 1.19 µM) and greater than 80 µg/mL, respectively. Besides, the CC50 in data set [2] was no more than 0.63 µg/mL.

As for `CC1CNC(c2ccc3cc(-c4ccc(-c5cc6ccc(C7=NC(C)CN7)cc6o5)s4)[nH]c3c2)=N1` (centres undefined), the MIC in the data set on Escherichia coli [1] (setting [6]) is 0.63 µg/mL (≈ 1.31 µM); in the data set with Bacillus subtilis it was 0.31 µg/mL (≈ 0.646 µM); in the data set with Enterococcus faecalis, 0.63 µg/mL (≈ 1.31 µM); in the data set on Escherichia coli [3] it was 1.25 µg/mL (≈ 2.61 µM); with Pseudomonas aeruginosa [4], 26.7 µg/mL (≈ 55.7 µM); in the data set on Staphylococcus aureus it was 1.04 µg/mL (≈ 2.17 µM). For the same molecule, the results for the MIC in the data set on Bacillus anthracis (setting [7]) and in the data set with Klebsiella pneumoniae were 0.52 µg/mL (≈ 1.08 µM) and 20 µg/mL (≈ 41.7 µM), respectively. For the same molecule, the CC50 in [2] turned out to be 14.5 µg/mL (≈ 30.2 µM).
